Measured values taken from ChEMBL document CHEMBL5316335, “Tanzawaic Acid Derivatives from the Marine-Derived Penicillium steckii as Inhibitors of RANKL-Induced Osteoclastogenesis” (J Nat Prod, 2023).
Active and inactive are the calls of the source. The calls are words filed in the database; no cut-off is given here.

How the values were obtained:
[1] = Inhibition of LPS-induced NF-kappaB activation in mouse RAW264.7 cells transfected with NF-kappaB luciferase reporter gene pretreated with compounds for 30 mins followed by LPS stimulation for 8 hrs by luciferase reporter gene assay; assay type: cell-based
Candida albicans = assay: Antifungal activity against Candida albicans Berkhout assessed as inhibition of fungal growth by broth microdilution method; assay type: functional, organism-based
PC-3 = assay: Anticancer activity against human PC-3 cells assessed as reduction in cell viability by MTT assay; assay type: functional, cell-based
Klebsiella pneumoniae = assay: Antibacterial activity against Klebsiella pneumoniae assessed as inhibition of bacterial growth by broth microdilution method; assay type: functional, organism-based
Sclerotinia sclerotiorum = assay: Antifungal activity against Sclerotinia sclerotiorum Hanzawa assessed as inhibition of fungal growth by broth microdilution method; assay type: functional, organism-based
[2] = system: Colletotrichum gloeosporioides; assay: Antifungal activity against Colletotrichum gloeosporioides assessed as inhibition of fungal growth by broth microdilution method; assay type: functional, organism-based
LNCaP = assay: Anticancer activity against human LNCaP cells assessed as reduction in cell viability by MTT assay; assay type: functional, cell-based
Staphylococcus aureus = assay: Antibacterial activity against Staphylococcus aureus assessed as inhibition of bacterial growth by broth microdilution method; assay type: functional, organism-based
DU-145 = assay: Anticancer activity against human DU-145 cells assessed as reduction in cell viability by MTT assay; assay type: functional, cell-based
Pyricularia grisea = assay: Antifungal activity against Magnaporthe grisea assessed as inhibition of fungal growth by broth microdilution method; assay type: functional, organism-based
CWR22R = assay: Anticancer activity against human 22Rv1 cells assessed as reduction in cell viability by MTT assay; assay type: functional, cell-based
BMMC = assay: Anti-osteoclastogenic activity in mouse BMMC assessed as inhibition of RANKL-induced osteoclast differentiation at 5 to 15 uM and measured after 3 days by TRAP staining inverted microscopic analysis; assay type: functional, cell-based; conditions: dose 5-15 µM, time 3.0 day

Compound	IC50 [1]	Activity (Candida albicans)	Activity (PC-3)	Activity (Klebsiella pneumoniae)	Activity (Sclerotinia sclerotiorum)	Activity [2]	Activity (LNCaP)	Activity (Staphylococcus aureus)	Activity (DU-145)	Activity (Pyricularia grisea)	Activity (CWR22R)	Activity (BMMC)
Cc1ccc(S(=O)(=O)/C=C/C#N)cc1	5 µM	–	–	–	–	–	–	–	–	–	–	–
C[C@@H]1C[C@@H]2[C@H](O)[C@H](O)[C@H](C)[C@](O)(/C=C/C=C/C(=O)O)[C@H]2[C@H](C)C1	15.2 µM	inactive	inactive	inactive	inactive	inactive	inactive	inactive	inactive	inactive	inactive	–
C[C@@H]1C[C@H](C)[C@H](O)c2ccc(CO)c(/C=C/C=C/C(=O)O)c21	10.4 µM	inactive	inactive	inactive	inactive	inactive	inactive	inactive	inactive	inactive	inactive	Dose-Dependent Effect
Cc1ccc2c(c1/C=C/C=C/C(=O)O)[C@H](C)C[C@@](C)(O)C2	18.6 µM	inactive	inactive	inactive	inactive	inactive	inactive	inactive	inactive	inactive	inactive	–
